In US11814376B2, “Hepatitis b core protein modulators” (Assembly Biosciences, Inc., priority 2015, dated 2023):

Key:
AD38 cells = test: Viability of AD38 cells (Promega CellTiter-Glo); format: cell-based; conditions: 10 μM compound, 6 days, CellTiter-Glo luminescence normalized to DMSO control (100%)
Method: (§1) Example 2: Assay Measuring Activity of Compounds on Viral Production in and on Viability of AD38 Cells
(§2) AD38 cells were then re-suspended with 10 mL of Treatment Medium and counted. Wells of a collagen coated 96-well NUNC microtiter plate were seeded at 50,000/well in 180 μL of Treatment Medium, and 20 μL of in treatment media with either 10% DMSO (Control) or a 10× solution of compound in 10% DMSO was added. Plates were incubated for 6 days at 37° C.
At the end of compound treatment period cell viability was assessed using a Promega CellTiter-Glo protocol. All supernatant was removed the previously treated 96-well microtiter plate, and 50 μL Tetracycline-free treatment medium (DMEM/F12 (1:1), 1× Pen/step (cat #: 30-002-CL, Mediatech, Inc), with 2% FBS, Tet-system approved (cat #: 631106, Clontech), and 1% DMSO was added back to each well. Another 50 μL of CellTiter-Glo reagent solution (Promega, G7573) was then added at room temperature and the contents mixed for 2 minutes on an orbital shaker to induce cell lysis. This was followed by incubation at room temperature for 10 minutes to stabilize the luminescent signal. The luminescence was recorded for 0.2 seconds per well on a Tecan multimode plate reader (Infinite M1000 pro). The luminescent signal from each well was normalized against that of untreated (DMSO) control wells. All results were reported percent viability (with controls being 100%).

[1] = test system: HBV viral load in AD38 cells; test: Viral load production in AD38 cells, quantitative PCR of the core sequence in supernatant; format: cell-based; conditions: 10 μM compound, 6 days at 37° C., supernatant qPCR, relative to DMSO control; for activity at 10 µM: Hepatitis B virus, 144 h, read-out: AD38 Viral Load (%) (VL with cmpd/VL in DMSO control) at 10 μM
Method: as §1, §2
Viral load production was assayed by quantitative PCR of the core sequence. […] The PCR mixture was incubated at 45° C. for 5 minutes, then 95° C. for 10 min, followed by 40 cycles of 10 seconds at 95° C. and 20 seconds at 60° C. Viral load was quantitated against known standards by using ViiA™ 7 Software. Viral load in the supernatant from wells with treated cells were compared against viral load in supernatant from DMSO control wells (>3 per plate).

Row | Compound | AD38 Viability Normalized Result (cmpd/DMSO %) at 10 μM (AD38 cells) | activity at 10 µM [1] | AD38 Viral Load (%) (VL with cmpd/VL in DMSO control) at 10 μM [1]
1 | CC(C)(C)OC(=O)NC1CCN(Cc2ncc(CNC(=O)c3ccc4c(c3)NC(=O)c3ccccc3S4(=O)=O)s2)CC1 [1885-A] | 107% | 4.5% | 
2 | COc1cc2c(cc1C(=O)NCc1cnc(-c3ccc(C#N)cc3)s1)NC(=O)c1ccccc1S2(=O)=O [1901-A, N-((2-(4-cyanophenyl)thiazol-5-yl)methyl)-7-methoxy-11-oxo-10, 11-dihydrodibenzo [b, f] [1, 4] thiazepine-8-carboxamide 5,5-dioxide] | 118% | 3% | 
3 | N#Cc1ccc(-c2ncc(CNC(=O)c3cc4c(cc3O)S(=O)(=O)c3ccccc3C(=O)N4)s2)cc1 [1901-B, N-((2-(4-cyanophenyl)thiazol-5-yl)methyl)-7-hydroxy-11-oxo-10, 11-dihydrodibenzo [b, f] [1, 4] thiazepine-8-carboxamide 5,5-dioxide] | 108% | 69.4% | 
4 | CC(C)(C)OC(=O)N1CC(COc2ccc(-c3ncc(CNC(=O)c4ccc5c(c4)NC(=O)c4ccccc4S5(=O)=O)s3)cc2)C1 [1995-A, tert-butyl 3-((4-(5-((5,5-dioxido-11-oxo-10, 11-dihydrodibenzo [b, f] [1, 4]thiazepine-8-carboxamido)methyl)thiazol-2-yl)phenoxy)methyl) azetidine-1-carboxylate] | 107% |  | 2.4%
5 | O=C(NCc1cnc(-c2ccc(C#CCCO)cc2)s1)c1ccc2c(c1)NC(=O)c1ccccc1S2(=O)=O [11002-A, N-((2-(4-(4-hydroxybut-1-yn-1-yl)phenyl)thiazol-5-yl)methyl)-11-oxo-10, 11-dihydrodibenzo [b, f] [1, 4] thiazepine-8-carboxamide 5,5-dioxide] | 106% | 1% | 
6 | CC(C)(C)OC(=O)NCCCSc1ccc(-c2ncc(CNC(=O)c3ccc4c(c3)NC(=O)c3ccccc3S4(=O)=O)s2)cc1 [11007-A, tert-butyl (3-((4-(5-((5,5-dioxido-11-oxo-10, 11-dihydrodibenzo [b, f] [1, 4]thiazepine-8-carboxamido)methyl)thiazol-2-yl)phenyl)thio)propyl) carbamate] | 75% |  | 0.9%
7 | CC(C)(C)OC(=O)N1CCN(C(=O)c2ccc(-c3ncc(CNC(=O)c4ccc5c(c4)NC(=O)c4ccccc4S5(=O)=O)s3)cc2)CC1 [11016-A, tert-butyl 4-(4-(5-((5,5-dioxido-11-oxo-10, 11-dihydrodibenzo [b, f] [1, 4]thiazepine-8-carboxamido)methyl)thiazol-2-yl)benzoyl) piperazine-1-carboxylate] | 103% |  | 6.7%
8 | CC(C)(C)OC(=O)NCCNC(=O)c1ccc(-c2ncc(CNC(=O)c3ccc4c(c3)NC(=O)c3ccccc3S4(=O)=O)s2)cc1 [11017-A, tert-butyl (2-(4-(5-((5,5-dioxido-11-oxo-10, 11-dihydrodibenzo [b, f] [1, 4]thiazepine-8-carboxamido)methyl)thiazol-2-yl)benzamido)ethyl)carbamate] | 102% | 8.8% | 
9 | CC(C)(C)OC(=O)N1CCN(c2ccc(-c3ncc(CNC(=O)c4ccc5c(c4)NC(=O)c4ccccc4S5(=O)=O)s3)cn2)CC1 [11019-A, tert-butyl 4-(5-(5-((5,5-dioxido-11-oxo-10, 11-dihydrodibenzo [b, f] [1, 4]thiazepine-8-carboxamido)methyl)thiazol-2-yl)pyridin-2-yl) piperazine-1-carboxylate] | 95% |  | 1.0%
10 | CC(C)(C)OC(=O)NCCCS(=O)(=O)c1ccc(-c2ncc(CNC(=O)c3ccc4c(c3)NC(=O)c3ccccc3S4(=O)=O)s2)cc1 [11032-A, tert-butyl (3-((4-(5-((5,5-dioxido-11-oxo-10, 11-dihydrodibenzo [b, f] [1, 4]thiazepine-8-carboxamido)methyl)thiazol-2-yl)phenyl)sulfonyl)propyl) carbamate] | 110% |  | 12.9%
11 | O=C(NCc1cnc(-c2ccc(SCCCO)cc2)s1)c1ccc2c(c1)NC(=O)c1ccccc1S2(=O)=O [11063-A, N-((2-(4-((3-hydroxypropyl)thio)phenyl)thiazol-5-yl)methyl)-11-oxo-10, 11-dihydrodibenzo [b, f] [1, 4] thiazepine-8-carboxamide 5,5-dioxide] | 104% | 0.4% | 
12 | O=C(NCc1cnc(-c2ccc(S(=O)(=O)CCCO)cc2)s1)c1ccc2c(c1)NC(=O)c1ccccc1S2(=O)=O [11063-B, N-((2-(4-((3-hydroxypropyl)sulfonyl)phenyl)thiazol-5-yl)methyl)-11-oxo-10, 11-dihydrodibenzo [b, f] [1, 4] thiazepine-8-carboxamide 5,5-dioxide] | 95% | 5.4% | 
13 | CC(C)(C)OC(=O)N1CCC[C@@H]1COc1ccc(-c2ncc(CNC(=O)c3ccc4c(c3)NC(=O)c3ccccc3S4(=O)=O)s2)cc1 [11104-A, tert-butyl (R)-2-((4-(5-((5,5-dioxido-11-oxo-10, 11-dihydrodibenzo [b, f] [1, 4]thiazepine-8-carboxamido)methyl)thiazol-2-yl)phenoxy)methyl) pyrrolidine-1-carboxylate] | 74% | 0.9% | 
14 | COC(=O)[C@@H]1CCCN1CCCOc1ccc(-c2ncc(CNC(=O)c3ccc4c(c3)NC(=O)c3ccccc3S4(=O)=O)s2)cc1 [11106-A] | 90% | 3.6% | 
15 | COC(=O)C1CCN(CCCOc2ccc(-c3ncc(CNC(=O)c4ccc5c(c4)NC(=O)c4ccccc4S5(=O)=O)s3)cc2)C1 (stereo not shown) [11107-A, methyl 1-(3-(4-(5-((5,5-dioxido-11-oxo-10, 11-dihydrodibenzo [b, f] [1, 4]thiazepine-8-carboxamido)methyl)thiazol-2-yl)phenoxy)propyl) pyrrolidine-3-carboxylate] | 100% |  | 7.7%
16 | O=C(NCc1cnc(-c2ccc(OCCCOn3nnc4cccnc43)cc2)s1)c1ccc2c(c1)NC(=O)c1ccccc1S2(=O)=O [11108-B, N-((2-(4-(3-((3H-[1,2,3]triazolo[4,5-b]pyridin-3-yl)oxy)propoxy)phenyl)thiazol-5-yl)methyl)-11-oxo-10,11-dihydrodibenzo[b, f] [1,4]thiazepine-8-carboxamide 5,5-dioxide] | 101% | 0.8% | 
17 | CC(C)c1cnn(-c2ncc(CNC(=O)c3ccc4c(c3)NC(=O)c3ccccc3S4(=O)=O)s2)c1 [11117-A] | 110% | 0.3% | 
18 | Cc1c(C(=O)NCc2cnc(-c3ccc(OCCCN(C)C)cc3)s2)ccc2c1NC(=O)c1ccccc1S2 [C20-01] | 98% | 1.5% | 
19 | Cc1c(C(=O)NCc2cnc(-n3cccn3)s2)ccc2c1NC(=O)c1ccccc1S2 [C20-02] | 95% | 0.5% | 
20 | Cc1c(C(=O)NCc2cnc(-c3ccc(OCCCN(C)C)cc3)s2)ccc2c1NC(=O)c1ccccc1S2(=O)=O [C38-01] | 99% | 1.3% | 
21 | Cc1c(C(=O)NCc2cnc(-n3cccn3)s2)ccc2c1NC(=O)c1ccccc1S2(=O)=O [C38-02] | 94% | 0.5% | 
22 | Cc1c(C(=O)NCc2cnc(-c3ccc(OCCCN(C)C)cc3)s2)ccc2c1NC(=O)c1ccccc1O2 [C44-01] | 97% | 2.6% | 
23 | CN(C)CCCOc1ccc(-c2ncc(CNC(=O)c3ccc4c(c3Cl)NC(=O)c3ccccc3S4(=O)=O)s2)cc1 [C51-01] | 99% | 0.4% | 
